Tested on: P388 murine leukemia cell line
Assay: P388 cytotoxicity (ATP-Lite, 72 hours)
Type: cell-based
Conditions: Mus musculus, P388, 72 hours
Method: A P388 murine leukemia cell line was obtained from NCI, Frederick, Md. P388 cells were cultured in RPMI-1640 supplemented with 10% fetal bovine serum, 2 mM Glutamax, 1 mM sodium pyruvate, 0.1 mM non-essential amino acids and 10 mM HEPES. Cells were grown at 37° C. in a humidified 5% CO2 atmosphere. Exponentially growing P388 cells were plated at 5,000 cells/well in a 96-well flat-bottomed microtiter plate (Corning, Costar #3595). […] Cellular viability was determined 72 hours later by measuring intracellular ATP with ATP-Lite assay system. The effect of compounds on cell viability was calculated by comparing the ATP levels of cells exposed to test compound with those of cells exposed to DMSO. […] Data was analyzed by Prism software (GraphPad; San Diego, Calif.) by fitting it to a sigmoidal dose response curve.

Row | SMILES | IC50 [nM]
1 | COc1ccc(N(C)c2nc(CC#N)nc3ccccc23)cc1 [Example 206, {4-[(4-Methoxy-phenyl)-methyl-amino]-quinazolin-2-yl}-acetonitrile] | 2
2 | CCOc1ccc(N(C)c2nc(C)nc3ccc([N+](=O)[O-])cc23)cc1 [Example 207, (4-Ethoxy-phenyl)-methyl-(2-methyl-6-nitro-quinazolin-4-yl)-amine] | 17
3 | COc1ccc(N(C)c2nc(CCl)nc3ccc(Br)cc23)cc1 [Example 208, (6-Bromo-2-chloromethyl-quinazolin-4-yl)-(4-methoxy-phenyl)-methyl-amine] | 27
4 | Cc1nc(N(C)c2ccc(OC(F)F)cc2)c2cc([N+](=O)[O-])ccc2n1 [Example 209, (4-Difluoromethoxy-phenyl)-methyl-(2-methyl-6-nitro-quinazolin-4-yl)-amine] | 490
5 | COc1ccc(N(C)c2nc(C)nc3ccc([N+](=O)[O-])cc23)cc1F [Example 210, (3-Fluoro-4-methoxy-phenyl)-methyl-(2-methyl-6-nitro-quinazolin-4-yl)-amine] | 57
6 | CCOc1ccc(N(C)c2nc(CN)nc3ccccc23)cc1 [Example 211, (2-Aminomethyl-quinazolin-4-yl)-(4-ethoxy-phenyl)-methyl-amine] | 15
7 | COc1ccc(N(C)c2nc(CCN)nc3ccccc23)cc1 [Example 212, [2-(2-Amino-ethyl)-quinazolin-4-yl]-(4-methoxy-phenyl)-methyl-amine] | 250
8 | COc1ccc(N(C)c2nc(CN)nc3ccc(N)cc23)cc1 [Example 213, 2-Aminomethyl-N4-(4-methoxy-phenyl)-N4-methyl-quinazoline-4,6-diamine] | 170
9 | CCOc1ccc(N(C)c2nc(C)nc3ccc(N)cc23)cc1 [Example 214, N^4-(4-Ethoxy-phenyl)-2,N^4-dimethyl-quinazoline-4,6-diamine] | 9
10 | COc1ccc(N(C)c2nc(C)nc3ccc(N)cc23)cc1F [Example 215, N^4-(3-Fluoro-4-methoxy-phenyl)-2,N^4-dimethyl-quinazoline-4,6-diamine] | 3
11 | Cc1nc(N(C)c2ccc(OC(F)F)cc2)c2cc(N)ccc2n1 [Example 216, N^4-(4-Difluoromethoxy-phenyl)-2,N^4-dimethyl-quinazoline-4,6-diamine] | 20
12 | CC(C)Oc1ccc(N(C)c2nc(CN)nc3ccccc23)cc1 [Example 217, (2-Aminomethyl-quinazolin-4-yl)-(4-isopropoxy-phenyl)-methyl-amine] | 18
13 | COc1ccc(N(C)c2nc(CN)nc3ccccc23)c(F)c1 [Example 218, (2-Aminomethyl-quinazolin-4-yl)-(2-fluoro-4-methoxy-phenyl)-methyl-amine] | 12
14 | COc1ccc(N(C)c2nc(CN)nc3ccc(Br)cc23)cc1 [Example 219, (2-Aminomethyl-6-bromo-quinazolin-4-yl)-(4-methoxy-phenyl)-methyl-amine] | 250
15 | CC(C)Oc1ccc(N(C)c2nc(CN)nc3ccc(N)cc23)cc1 [Example 220, 2-Aminomethyl-N^4-(4-isopropoxy-phenyl)-N^4-methyl-quinazoline-4,6-diamine] | 870
16 | COc1ccc(N(C)c2nc(C)nc3ccc([N+](=O)[O-])cc23)c(F)c1 [Example 221, (2-Fluoro-4-methoxy-phenyl)-methyl-(2-methyl-6-nitro-quinazolin-4-yl)-amine] | 58
17 | COc1ccc(N(C)c2nc(C)nc3ccc(N)cc23)c(F)c1 [Example 222, N^4-(2-Fluoro-4-methoxy-phenyl)-2,N^4-dimethyl-quinazoline-4,6-diamine] | 6
18 | COc1ccc(N(C)c2nc(C)nc3ccc(N)cc23)cc1OC [Example 223, N^4-(3,4-Dimethoxy-phenyl)-2,N^4-dimethyl-quinazoline-4,6-diamine] | 64
19 | Cc1nc(N(C)c2ccc(OC(C)C)cc2)c2cc([N+](=O)[O-])ccc2n1 [Example 224, (4-Isopropoxy-phenyl)-methyl-(2-methyl-6-nitro-quinazolin-4-yl)-amine] | 170
20 | CNc1ccc(N(C)c2nc(C)nc3ccc(N)cc23)cc1 [Example 225, 2,N^4-Dimethyl-N^4-(4-methylamino-phenyl)-quinazoline-4,6-diamine] | 37
21 | Cc1nc(N(C)c2ccc(OC(C)C)cc2)c2cc(N)ccc2n1 [Example 226, N^4-(4-Isopropoxy-phenyl)-2,N^4-dimethyl-quinazoline-4,6-diamine] | 20
22 | COc1ccc(N(C)c2nc(N(C)CCCN)nc3ccccc23)cc1 [Example 227, N^2-(3-Amino-propyl)-N^4-(4-methoxy-phenyl)-N^2,N^4-dimethyl-quinazoline-2,4-diamine] | 27

Row | SMILES | IC50 [nM]
23 | CNCCCNc1nc(N(C)c2ccc(OC)cc2)c2ccccc2n1 [Example 228, N^4-(4-Methoxy-phenyl)-N^4-methyl-N^2-(3-methylamino-propyl)-quinazoline-2,4-diamine] | 900
24 | COc1ccc(N(C)c2nc(CN)nc3cccc(F)c23)cc1 [Example 229, (2-Aminomethyl-5-fluoro-quinazolin-4-yl)-(4-methoxy-phenyl)-methyl-amine] | 5
25 | CN(c1ccc(O)cc1)c1nc(CN)nc2ccccc12 [Example 230, 4-[(2-Aminomethyl-quinazolin-4-yl)-methyl-amino]-phenol] | 1700
26 | COc1ccc(N(C)c2nc(C(C)(C)C#N)nc3ccccc23)cc1 [Example 231, 2-{4-[(4-Methoxy-phenyl)-methyl-amino]-quinazolin-2-yl}-2-methyl-propionitrile] | 37
27 | COc1ccc(N(C)c2nc(CNC(=O)CCC(=O)O)nc3ccccc23)cc1 [Example 232, N-{4-[(4-Methoxy-phenyl)-methyl-amino]-quinazolin-2-ylmethyl}-succinamic acid] | 950
28 | CNCc1nc(N(C)c2ccc(OC)cc2)c2ccccc2n1 [Example 233, (4-Methoxy-phenyl)-methyl-(2-methylaminomethyl-quinazolin-4-yl)-amine] | 1100
29 | COc1ccc(N(C)c2nc(CN)nc3ccccc23)cc1F [Example 234, (2-Aminomethyl-quinazolin-4-yl)-(3-fluoro-4-methoxy-phenyl)-methyl-amine] | 11
30 | CCOc1ccc(N(C)c2nc(CN)nc3ccccc23)cc1F [Example 235, (2-Aminomethyl-quinazolin-4-yl)-(4-ethoxy-3-fluoro-phenyl)-methyl-amine] | 5
31 | COc1ccc(N(C)c2nc(C)nc3ccc(NS(=O)(=O)c4ccc(OC)cc4)cc23)cc1 [Example 236, 4-Methoxy-N-{4-[(4-methoxy-phenyl)-methyl-amino]-2-methyl-quinazolin-6-yl}-benzenesulfonamide] | 680
32 | CCOc1ccc(N(C)c2nc(CN)nc3ccccc23)c(F)c1 [Example 237, (2-Aminomethyl-quinazolin-4-yl)-(4-ethoxy-2-fluoro-phenyl)-methyl-amine] | 15
33 | COc1ccc(N(C)c2nc(CNC(=O)[C@H](C)N)nc3ccccc23)cc1 [Example 238, (S)-2-Amino-N-{4-[(4-methoxy-phenyl)-methyl-amino]-quinazolin-2-ylmethyl}-propionamide] | 12
34 | CCOc1ccc(N(C)c2nc(CN)nc3cccc(F)c23)cc1 [Example 239, (2-Aminomethyl-5-fluoro-quinazolin-4-yl)-(4-ethoxy-phenyl)-methyl-amine] | 22
35 | COc1ccc(N(C)c2nc(CN)nc3ccccc23)cc1Cl [Example 240, (2-Aminomethyl-quinazolin-4-yl)-(3-chloro-4-methoxy-phenyl)-methyl-amine] | 6
36 | COc1ccc(N(C)c2nc(CN)nc3ccc(-c4ccc(Cl)cc4)cc23)cc1 [Example 241, [2-Aminomethyl-6-(4-chloro-phenyl)-quinazolin-4-yl]-(4-methoxy-phenyl)-methyl-amine] | 1440
37 | COc1ccc(N(C)c2nc(CCl)nc3ccccc23)cc1Cl [Example 242, (3-Chloro-4-methoxy-phenyl)-(2-chloromethyl-quinazolin-4-yl)-methyl-amine] | 10
38 | COc1ccc(N(C)c2nc(CN)nc3ccc(-c4ccccc4)cc23)cc1 [Example 243, (2-Aminomethyl-6-phenyl-quinazolin-4-yl)-(4-methoxy-phenyl)-methyl-amine] | 4200
39 | COc1ccc(N(C)c2nc(CNC(=O)c3cccnc3)nc3ccccc23)cc1 [Example 244, N-{4-[(4-Methoxy-phenyl)-methyl-amino]-quinazolin-2-ylmethyl}-nicotinamide] | 58
40 | COc1ccc(N(C)c2nc(C)nc3ccc(Br)cc23)cc1 [Example 245, (6-Bromo-2-methyl-quinazolin-4-yl)-(4-methoxy-phenyl)-methyl-amine] | 2
41 | CCOc1ccc(N(C)c2nc(C)nc3ccc(Br)cc23)cc1F [Example 246, (6-Bromo-2-methyl-quinazolin-4-yl)-(4-ethoxy-3-fluoro-phenyl)-methyl-amine] | 11
42 | COc1ccc(N(C)c2nc(-c3nnn[nH]3)nc3ccccc23)cc1 [Example 247, (4-Methoxy-phenyl)-methyl-[2-(1H-tetrazol-5-yl)-quinazolin-4-yl]-amine] | 60
43 | COc1ccc(N(C)c2nc(CNC(=O)[C@@H](C)N)nc3ccccc23)cc1 [Example 248, (R)-2-Amino-N-{4-[(4-methoxy-phenyl)-methyl-amino]-quinazolin-2-ylmethyl}-propionamide] | 222
44 | COc1ccc(N(C)c2nc(C)nc3ccc(C#N)cc23)cc1 [Example 249, 4-[(4-Methoxy-phenyl)-methyl-amino]-2-methyl-quinazoline-6-carbonitrile] | 20

— US20130029942A1, “COMPOUNDS AND THERAPEUTICAL USES THEREOF” (Myrexis, Inc., priority 2003, published 2013)
